# Assay results published in patent publication US20160129011A1, “BICYCLO 2,3-BENZODIAZEPINES AND SPIROCYCLICALLY SUBSTITUTED 2,3-BENZODIAZEPINES” (BAYER PHARMA AKTIENGESELLSCHAFT, priority 2013, published 2016).
# What was measured:
# BRD4 (BD1) = target: T1, BRD4 (BD1) (Homo sapiens, UniProt O60885); assay: Binding assay BRD4/acetylated peptide H4 (TR-FRET protein-protein interaction assay); details: BRD4 (BD1) / acetylated histone H4 peptide
# T1 construct: longer constructs also being possible, preferably amino acids 44-168; made in house; host or cells: E. coli
# Method in brief: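 His6-tagged BRD4 BD1 (aa 67-152, E. coli-expressed, typically 10 nM) was used with a biotinylated tetra-acetylated H4 peptide, and compounds at 0.1 nM–20 μM in duplicate. After 10 min preincubation, mixtures were incubated 1 h at 22 °C, then ≥3 h at 4 °C. Read-out was the TR-FRET 665/622 nm ratio (Eu-streptavidin to anti-His-XL665); IC50 from a 4-parameter fit.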
# MOLM-13 cells = assay: Cell proliferation assay (alamarBlue), MOLM-13; format: cell-based; details: acute myeloid leukaemia cell line, 96 h incubation
# Method in brief: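 MOLM-13 cells in RPMI1640/10% FCS were plated overnight, then exposed to seven compound dilutions (1E-5 to 1E-8 M) for 96 h at 37 °C. Viability was read by alamarBlue fluorescence (ex 530/em 590 nm). Pre-treatment readings were subtracted, and IC50 was calculated against buffer-treated cells.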
# B16F10 cells = assay: Cell proliferation assay (alamarBlue), B16F10; format: cell-based; details: melanoma (BRAF wild-type) cell line, 96 h incubation
# Protocol: (§1) In accordance with the invention, the ability of the substances to inhibit cell proliferation was determined. Cell viability was determined by means of the alamarBlue® reagent (Invitrogen) in a Victor X3 Multilabel Reader (Perkin Elmer). The excitation wavelength was 530 nm and the emission wavelength […].
# The B16F10 cells (ATCC, CRL-6475) were sown at a concentration of 300-500 cells/well in 100 μl of growth medium (DMEM with phenol red, 10% FCS) on 96-well microtitre plates.
# (§2) The MDA-MB-231 cells (DSMZ, ACC 732) were sown at a concentration of 4000 cells/well in 100 μl of growth medium (DMEM/Ham's F12 medium, 10% FCS) on 96-well microtitre plates. After overnight incubation at 37° C., the fluorescence values (CI values) were determined. Then the plates were treated with various substance dilutions (1E-5 M, 3E-6 M, 1E-6 M, 3E-7 M, 1E-7 M, 3E-8 M, 1E-8 M) and incubated at 37° C. for 72 (MV4-11, LOX-IMVI cells), 96 (MOLM-13, B16F10, […] cells), 120 (MOLP-8, KMS-12-PE cells) or 168 (LAPC-4 cells) hours. Subsequently, the fluorescence values were determined (CO values). For the data analysis, the CI values were subtracted from the CO values and the results were compared between cells which had been treated with various dilutions of the substance or only with buffer solution. This was used to calculate the IC50 values (substance concentration required for 50% inhibition of cell proliferation).
# (§3) The substances were examined in the cell lines of Table 1 which, in an exemplary manner, represent the stated indications: […]
# MOLP-8 cells = assay: Cell proliferation assay (alamarBlue), MOLP-8; format: cell-based; details: multiple myeloma cell line, 120 h incubation
# Protocol: as §1
# The MOLP-8 cells (DSMZ, ACC 569) were sown at a concentration of 4000 cells/well in 100 μl of growth medium (RPMI1640, 20% FCS) on 96-well microtitre plates.
# as §2, §3
# LAPC-4 cells = assay: Cell proliferation assay (alamarBlue), LAPC-4; format: cell-based; details: Homo sapiens, LAPC4; prostate cancer cell line, 1 nM methyltrienolone, 168 h incubation
# Protocol: as §1
# The LAPC-4 cells (ATCC, PTA-1441TM) were sown at a concentration of 4000 cells/well in 100 μl of growth medium (RPMI1640, 2 mM L-glutamine, 10% cFCS) on 96-well microtitre plates. One day later, the LAPC-4 cells were treated with 1 nM methyltrienolone and various substance dilutions.
# as §2, with “For the data analysis, the CI values were subtracted from the CO values and the results were compared between cells which had been treated with various dilutions of the substance or only with buffer solution. This was used to calculate the IC50 values (substance concentration required for 50% inhibition of cell proliferation).” left out
# LOX-IMVI cells = assay: Cell proliferation assay (alamarBlue), LOX IMVI; format: cell-based; details: Homo sapiens, melanoma (BRAF mutated) cell line, 72 h incubation
# Protocol: as §1
# The LOX-IMVI cells (NCI-60) were sown at a concentration of 1000 cells/well in 100 μl of growth medium (RPMI1640, 10% FCS) on 96-well microtitre plates.
# as §2, with “proliferation). […]” for “proliferation).”
# MDA-MB-231 cells = assay: Cell proliferation assay (alamarBlue), MDA-MB-231; format: cell-based; details: Homo sapiens, mammary carcinoma cell line, 96 h incubation
# Protocol: as §1, §2, §3
# MV4-11 cells = assay: Cell proliferation assay (alamarBlue), MV4-11; format: cell-based; details: Homo sapiens, acute myeloid leukaemia cell line, 72 h incubation
# Protocol: as §1
# The MV4-11 cells (ATCC, CRL 9591) were sown at a concentration of 5000 cells/well in 100 μl of growth medium (RPMI1640, 10% FCS) on 96-well microtitre plates.
# as §2, with “proliferation). […]” for “proliferation).”
# KMS-12-PE cells = assay: Cell proliferation assay (alamarBlue), KMS-12-PE; format: cell-based; details: Homo sapiens, multiple myeloma cell line, 120 h incubation
# Protocol: as §1
# The KMS-12-PE cells (DSMZ, ACC 606) were sown at a concentration of 4000 cells/well in 100 μl of growth medium (RPMI1640, 20% FCS) on 96-well microtitre plates.
# as §2, with “proliferation). […]” for “proliferation).”
SMILES,IC50 (BRD4 (BD1)) [nM],"IC50 (MOLM-13 cells; Homo sapiens, MOLM-13) [nM]","IC50 (B16F10 cells; Mus musculus, B16-F10) [nM]","IC50 (MOLP-8 cells; Homo sapiens, MOLP-8) [nM]",IC50 (MOLM-13 cells) [nM],IC50 (B16F10 cells) [nM],IC50 (MOLP-8 cells) [nM],IC50 (LAPC-4 cells) [nM],IC50 (LOX-IMVI cells) [nM],IC50 (MDA-MB-231 cells) [nM],IC50 (MV4-11 cells) [nM],IC50 (KMS-12-PE cells) [nM]
"CNC(=O)N1N=C(c2ccc(F)c(N3C[C@@H]4C[C@H]3CN4)c2)c2cc(OC)c(OC)cc2CC1C (relative stereo) [Example 20, [1S-(1R*,4R*)]-1-[3-(2,5-diazabicyclo[2.2.1]hept-2-yl)-4-fluorophenyl]-7,8-dimethoxy-4,5-dihydro-N,4-dimethyl-3H-2,3-benzodiazepine-3-carboxamide]",410,1070,1430,770,–,–,–,–,–,–,–,–
"CNC(=O)N1N=C(c2ccc(N3C[C@@H]4C[C@H]3CN4C)cc2)c2cc(OC)c(OC)cc2CC1C (relative stereo) [Example 40, [1S-(1R*,4R*)]-7,8-Dimethoxy-N,4-dimethyl-1-[4-(5-methyl-2,5-diazabicyclo[2.2.1]hept-2-yl)phenyl]-4,5-dihydro-3H-2,3-benzodiazepine-3-carboxamide]",180,390,450,240,–,–,–,–,–,–,–,–
"CNC(=O)N1N=C(c2ccc(N3C[C@@H]4C[C@H]3CN4C)cc2)c2cc(OC)c(OC)cc2C[C@H]1C (relative stereo) [Example 40.1, [1S-[1R*,2(S*),4R*]]-7,8-Dimethoxy-N,4-dimethyl-1-[4-(5-methyl-2,5-diazabicyclo[2.2.1]hept-2-yl)phenyl]-4,5-dihydro-3H-2,3-benzodiazepine-3-carboxamide]",70,–,–,–,200,210,100,–,–,–,–,–
"CNC(=O)N1N=C(c2ccc(F)c(N3C[C@@H]4C[C@H]3CN4C)c2)c2cc(OC)c(OC)cc2CC1C (relative stereo) [Example 41, [1S-(1R*,4R*)]-1-[4-fluoro-3-(5-methyl-2,5-diazabicyclo[2.2.1]hept-2-yl)phenyl]-7,8-dimethoxy-4,5-dihydro-N,4-dimethyl-3H-2,3-benzodiazepine-3-carboxamide]",430,1140,1470,690,–,–,–,–,–,–,–,–
"CNC(=O)N1N=C(c2ccc(N3CC4(CCS4(=O)=O)C3)cc2)c2cc(OC)c(OC)cc2C[C@@H]1C [Example 3.1, (4S)-1-[4-(1,1-Dioxido-1-thia-6-azaspiro[3.3]hept-6-yl)phenyl]-7,8-dimethoxy-N,4-dimethyl-4,5-dihydro-3H-2,3-benzodiazepine-3-carboxamide]",20,70,40,40,–,–,–,20,280,80,40,50
"CNC(=O)N1N=C(c2ccc(N3C[C@H]4CC[C@@H](C3)O4)cc2)c2cc(OC)c(OC)cc2C[C@@H]1C [Example 4.2, (4S)-7,8-dimethoxy-N,4-dimethyl-1-[4-(8-oxa-3-azabicyclo[3.2.1]oct-3-yl)phenyl]-4,5-dihydro-3H-2,3-benzodiazepine-3-carboxamide]",10,40,20,20,–,–,–,10,170,40,30,30
"CNC(=O)N1N=C(c2ccc(N3CC4(CN(C(=O)OC(C)(C)C)C4)C3)cc2)c2cc(OC)c(OC)cc2C[C@@H]1C [Example 8.1, tert-butyl 6-{4-[(4S)-7,8-dimethoxy-4-methyl-3-(methylcarbamoyl)-4,5-dihydro-3H-2,3-benzodiazepine-1-yl)phenyl}-2,6-diazaspiro[3.3]heptane-2-carboxylate]",60,180,130,100,–,–,–,–,–,–,–,–
"CNC(=O)N1N=C(c2ccc(N3CC4(CCS4(=O)=O)C3)cc2)c2cc(-n3nc(C)cc3C)ccc2C[C@H]1C [Example 17.1, (4R)-8-(3,5-Dimethyl-1H-pyrazol-1-yl)-1-[4-(1,1-dioxido-1-thia-6-azaspiro[3.3]hept-6-yl)phenyl]-N,4-dimethyl-4,5-dihydro-3H-2,3-benzodiazepine-3-carboxamide]",1470,6740,5590,4320,–,–,–,–,–,–,–,–
"CNC(=O)N1N=C(c2ccc(N3CC4(CCS4(=O)=O)C3)cc2)c2cc(-n3nc(C)cc3C)ccc2C[C@@H]1C [Example 17.2, (4S)-8-(3,5-Dimethyl-1H-pyrazol-1-yl)-1-[4-(1,1-dioxido-1-thia-6-azaspiro[3.3]hept-6-yl)phenyl]-N,4-dimethyl-4,5-dihydro-3H-2,3-benzodiazepine-3-carboxamide]",10,100,80,60,–,–,–,–,–,–,–,–
"CNC(=O)N1N=C(c2ccc(N3CC4(CCS4(=O)=O)C3)cc2)c2cc(OC(F)(F)F)ccc2C[C@@H]1C [Example 18.2, (4S)-1-[4-(1,1-dioxido-1-thia-6-azaspiro[3.3]hept-6-yl)phenyl]-N,4-dimethyl-8-(trifluoromethoxy)-4,5-dihydro-3H-2,3-benzodiazepine-3-carboxamide]",10,30,30,30,–,–,–,–,–,–,–,–
